# According to patent publication US8609870B2, “Treating various disorders using TrkB agonists” (Emory University, priority 2008, dated 2013):
# How the values were obtained:
# hippocampal neurons = assay: Oxygen-glucose deprivation (OGD) apoptosis in hippocampal neurons; format: cell-based
# [1] = target: TrkB extra-cellular domain (ECD) (Homo sapiens, UniProt Q16620); assay: [3H]-deoxygedunin ligand binding assay, TrkB ECD (Scatchard plot)
# Method: Purified TrkB ECD or ICD proteins (10 μg/each) were incubated with different [^3H-deoxygedunin] in 1 ml binding buffer (0.05 M Na/K phosphate buffer (pH 7.1), 200 mM NaCl) (1 nM [^3H]deoxygedunin˜82300 cpm) at 4° C. for 10 minutes. After incubation, the reaction mixture was loaded on filter paper and washed with 3×5 ml Tris buffer (100 mM Tris, pH 7.1). The dried filter paper was put into a small vial and subjected to liquid scintillation counter analysis. The value of the dissociation constant and the number of sites were obtained from Scatchard plots by using the equation r/[L]free=n/Kd−r/Kd, where r is the ratio of the concentration of bound ligand to the total protein concentration and n is the number of binding sites.
# To determine whether an identified active compound physically and directly binds to the TrkB receptor, in vitro binding assays can be conducted with purified TrkB extracellular domain (ECD) and intracellular domain (ICD) recombinant proteins. Purified TrkB ECD and ICD (10 μg of each) are incubated with different concentrations of ^3H-labeled identified active compound in 1 ml of binding buffer (0.05M Na/K phosphate buffer, pH 7.1, 200 mM NaCl) at 4° C. for 10 minutes. After the incubation, the reaction mixture is loaded on filter paper. The mixture is washed three times with Tris buffer (100 mM Tris, pH 7.1), and the dried filter paper is put into a small vial and subjected to liquid scintillation counter analysis. […] The value of the dissociate constant and the number of sites will then be obtained from Scatchard plots using the equation r/[L]free=n/Kd−r/Kd, where r is the ratio of the concentration of bound ligand to the total protein concentration and n is the number of binding sites.
# (§1) To determine whether deoxygedunin binds the intra-cellular domain (ICD) or extra-cellular domain (ECD) of the TrkB receptor, ligand binding assays with [^3H]-deoxygedunin were performed. […] The coprecipitated HA-TrkB was also prominently tyrosine phosphorylated (see FIG. 14, 3rd panel).
# BDNF −/− pups = assay: Vestibular ganglion loss in BDNF −/− pups; format: in vivo, mouse
# Method: The cochleae of various drug-treated pups (P1 or P2 BDNF +/+ and −/− pups) were first fixed through cardioperfusion of 4% paraformaldehyde (in PBS). Each cochlea was dissected out and postfixed in 1% osmium for one hour at room temperature. Samples were decalcified in 0.35 M EDTA (pH 7.5, in PBS) for 72 hours at 4° C., followed by gradual dehydration in graded alcohols, infiltrated, and embedded in epoxy resin with the conventional protocols. Consecutive cochlear sections (5 μm in thickness) were cut with a microtome (Microm HM335E, GmbH) along the axis of the modiolus. Sections were stained with toluidine blue. Vestibular ganglions were identified by their location in the auditory internal meatus with the basal cochlear turn and the cochlear modiolus as morphological reference landmarks.
# To examine whether deoxygedunin activating TrkB involved endogenous BDNF, BDNF conditional knockout mice with BDNF gene deletion limited to cortex (thus allowing normal development) were used. Deoxygedunin (5 mg/kg) was intraperitoneally injected into the BDNF cortex conditional knockout mice and the mice were sacrificed at 4 hours. […] Mutant mice lacking BDNF were known to have severe deficiencies in coordination and balance, which have been associated with excessive degeneration in several sensory ganglia including the vestibular ganglion (Ernfors et al., Nature 368, 147-150 (1994)). To determine whether deoxygedunin rescued this loss of vestibular ganglions in BDNF −/− pups, conventional BDNF +/− mice were bred with the same genotype mice. Deoxygedunin (5 mg/kg, i.p.) was administered to the pregnant mice at day E7.5 until birth.
# Erk1/2 and Akt = Erk1/2 and Akt activation in hippocampal neurons (Western blot); format: cell-based; details: hippocampal neurons
# Method: BDNF binding to TrkB induces its autophosphorylation and, subsequently, activation of downstream kinase pathways including MAPK and PI3/Akt. To explore whether an identified active compound triggers TrkB activation, immunofluorescent staining on hippocampal neurons with anti-phospho TrkB antibody is conducted. To examine whether an identified active compound stimulates TrkB-mediated downstream signaling cascades, Western analysis is performed and the activation of Akt and Erk also is monitored. To test whether the stimulatory effect of an identified active compound is mediated through TrkB, cells are either untreated or treated with K252a, a selective inhibitor of the tyrosine kinase activity of the Trk family of neutrophin receptors. Cells treated with K252a block TrkB tyrosine phosphorylation in cells exposed to an identified active compound. To probe the time course of TrkB activation triggered by an identified active compound, hippocampal neurons are treated with an identified active compound at 500 nM and phosphorylation of Erk and Akt is determined over time by Western analysis. Whether stimulation of Erk and Akt by an identified active compound occurs in a dose dependent manner also is determined.
# Both Akt and Erk1/2 were robustly activated by these molecules as well). […] The minimal required drug concentration was about 100-250 nM (see FIG. 7, right panels). […] To assess whether deoxygedunin provokes TrkB activation in the brain, mice (i.p.) were injected with a dose of 5 mg/kg for various time points. […] To establish that deoxygedunin is orally bioactive in provoking TrkB activation, two to three month old C57BL/6J mice were orally injected with various doses of 7,8-dihydroxyflavone or deoxygedunin then sacrificed 2 to 4 hours after administration. Brain lysates were prepared and analyzed by immunoblotting (see FIG. 10).
# TrkB F616A knockin mice = assay: KA-provoked apoptosis (caspase-3) in TrkB F616A knockin mice; format: in vivo, mouse; details: TrkB F616A mice, without 1NMPP1
# Method: To determine if 1NMPP1 makes neurons treated with an identified active compound vulnerable to KA-provoked neuronal cell death, TrkF616A knockin mice are fed with 1NMPP1 (25 mM) in drinking water one day prior to pharmacological reagent treatment. The next day, the mice are intraperitoneally injected with KA (25 mg/kg), or an identified active compound (5 mg/kg) 4 hours prior to KA injection. The control mice are injected with either KA or an identified active compound alone, or the mice are administered an identified active compound 4 hours before KA. After 4 days, the mice are sacrificed and the brains are homogenized and ultracentrifuged. The supernatant then is employed for SDS-PAGE and immunoblotting analysis.
# […] inversely correlated with TrkB activation by deoxygedunin (FIG. 20, top and middle panels).
# TrkC = target: T1, TrkC (Homo sapiens, UniProt Q16288); assay: Tyrosine phosphorylation of TrkC in transfected HEK293 cells; format: cell-based
# T1 construct: expressed in transfected cells; host or cells: HEK293
# From the text: To determine if an identified active compound promotes tyrosine phosphorylation of the other Trk receptors, HEK293 cells are transfected with various Trk receptors, which is followed by treatment with the identified active compound. Treatment with an identified active compound that elicits tyrosine phosphorylation in the TrkB receptor but not in the TrkA or TrkC receptor indicates an active compound.
# as §1
# Sequence of TrkB extra-cellular domain (ECD) (Q16620 32-430 limits assumed): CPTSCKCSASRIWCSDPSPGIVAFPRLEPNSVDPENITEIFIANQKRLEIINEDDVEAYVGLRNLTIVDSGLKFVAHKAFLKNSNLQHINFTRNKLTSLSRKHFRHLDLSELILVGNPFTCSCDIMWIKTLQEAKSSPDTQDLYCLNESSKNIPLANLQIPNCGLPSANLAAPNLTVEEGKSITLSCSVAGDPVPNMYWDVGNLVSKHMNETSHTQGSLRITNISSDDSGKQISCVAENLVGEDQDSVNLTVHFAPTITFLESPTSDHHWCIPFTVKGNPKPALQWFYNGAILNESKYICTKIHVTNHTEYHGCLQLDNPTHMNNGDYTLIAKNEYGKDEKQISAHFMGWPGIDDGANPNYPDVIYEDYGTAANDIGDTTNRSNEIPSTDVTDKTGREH
# T1 sequence (Q16288 32-839, species assumed): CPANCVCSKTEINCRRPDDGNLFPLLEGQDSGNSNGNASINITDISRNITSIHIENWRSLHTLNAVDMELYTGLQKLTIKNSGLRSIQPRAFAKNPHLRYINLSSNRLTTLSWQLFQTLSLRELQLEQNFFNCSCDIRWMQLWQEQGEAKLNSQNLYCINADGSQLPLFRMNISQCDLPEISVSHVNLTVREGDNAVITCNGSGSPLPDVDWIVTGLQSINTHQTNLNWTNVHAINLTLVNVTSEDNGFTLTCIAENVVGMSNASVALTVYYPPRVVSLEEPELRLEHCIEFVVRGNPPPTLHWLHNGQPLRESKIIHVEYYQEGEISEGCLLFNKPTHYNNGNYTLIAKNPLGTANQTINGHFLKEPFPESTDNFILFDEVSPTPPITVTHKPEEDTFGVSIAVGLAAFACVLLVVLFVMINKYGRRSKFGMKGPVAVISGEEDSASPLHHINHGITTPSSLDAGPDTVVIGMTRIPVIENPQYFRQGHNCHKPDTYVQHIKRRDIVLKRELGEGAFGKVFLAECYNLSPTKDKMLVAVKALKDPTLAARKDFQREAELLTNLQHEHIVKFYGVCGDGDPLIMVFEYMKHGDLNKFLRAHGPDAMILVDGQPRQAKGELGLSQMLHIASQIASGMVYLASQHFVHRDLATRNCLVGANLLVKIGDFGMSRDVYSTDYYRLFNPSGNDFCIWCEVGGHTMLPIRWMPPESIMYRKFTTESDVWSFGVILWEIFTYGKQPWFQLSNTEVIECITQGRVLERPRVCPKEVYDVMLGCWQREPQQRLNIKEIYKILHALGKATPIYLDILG
structure (smiles),measurement,setting,value
CC(=O)O[C@@H]1C[C@H]2C(C)(C)C(=O)C=C[C@]2(C)[C@H]2CC[C@]3(C)C(=CC(=O)O[C@H]3c3ccoc3)[C@@]21C [deoxygedunin],protective effects on hippocampal neurons under OGD,hippocampal neurons; apoptotic ratio compared to BDNF and DMSO,potent protective effects
same,titration assay under OGD,hippocampal neurons; dose titration,protects neurons in a dose-dependent manner
same,Kd,"[1]; Scatchard plot analysis, read-out: binding constant Kd",1400 nM
same,major binding site in TrkB ECD (truncation assays),[1]; TrkB ECD truncation mutants,Ig2 domain
same,vestibular ganglia in stained inner ear sections,"BDNF −/− pups; BDNF mutant pups, 5 mg/kg i.p.",displayed intact vestibular ganglia
same,vestibular ganglia detected (quantitative analysis),"BDNF −/− pups; BDNF −/− pups, 5 mg/kg i.p. to pregnant mice from E7.5 and to pups",42.2±6.3%
same,survival of BDNF −/− pups under treatment,BDNF −/− pups; neonatal pups receiving 5 mg/kg deoxygedunin,continued dying at P1 or P2
same,minimal required drug concentration for Erk1/2 and Akt activation,Erk1/2 and Akt,100 to 250 nM
same,Erk1/2 and Akt activation,Erk1/2 and Akt; time course and dose dependency,prominently provoked both Erk1/2 and Akt activation
same,KA-provoked apoptosis,TrkB F616A knockin mice,suppressed KA-provoked apoptosis
same,tyrosine phosphorylation in TrkC,TrkC,not in TrkA or TrkC receptor
